# Test results: PMC9668969 (Nature Communications, 2022)
# Assays:
# Format in all cases: biochemical, Erwinia chrysanthemi
# Conditions in all cases: 25 mol% outer leaflet POPG, 10 mM propylamine
# ELIC R117A = assay: Asymmetric liposome stopped-flow Tl+ flux assay, mutant
# Protocol: We next tested the effect of mutations that directly interact with the phospholipid in the ELIC5 CA structure (R117, T259), or are near this site and previously shown to interact with cardiolipin (S202, R318A, T259A and W206F) (Fig. 6a)[14]. The mutations were tested as for WT by examining the effect of 25 mol% outer leaflet POPG in paired (no exchange versus exchange) samples (Supplementary Fig. 15). […] Despite the mutations having various effects on ELIC agonist responses, comparison of no exchange and exchange samples enabled assessment of the effect of POPG.
# The fluorescence sequential-mixing stopped-flow liposomal flux measurements were carried using an SX20 stopped-flow spectrofluorometer (Applied Photophysics) and Pro-Data SX software[13],[30]. […]
# Using propylamine as the agonist, the assay and analysis was carried out as previously described[13],[30]. […] After a variable delay of 10 ms to 25 s, the sample was then mixed 1:1 with a quenching buffer (90 mM NaNO3, 50 mM TlNO3, 10 mM HEPES, pH 7), and ANTS fluorescence (ex. 360 nm, fluorescence above 420 nm) was recorded for 1 s. […] The time course of desensitization was also fit to a double exponential and a weighted time constant was calculated as was done for the patch-clamp data using Origin 2019b. […]
# Acceptor liposomes were prepared as described in the Stopped-flow fluorescence recordings section until completion of the extrusion step. […]
# ELIC Q264L = target: T1, ELIC Q264L (Dickeya chrysanthemi, UniProt P0C7B7, Q263L)
# T1 construct: host or cells: OverExpress C43 (DE3) E. coli
# Protocol: (§1) The mutations were tested as for WT by examining the effect of 25 mol% outer leaflet POPG in paired (no exchange versus exchange) samples (Supplementary Fig. 15).
# (§2) The fluorescence sequential-mixing stopped-flow liposomal flux measurements were carried using an SX20 stopped-flow spectrofluorometer (Applied Photophysics) and Pro-Data SX software[13],[30]. 7.5 mg of the respective lipid mixture (POPC, 1:1 POPC: POPE, 1:1 POPC:POPG, 3:1 POPC:POPE, 3:1 POPC:POPG, 2:1:1 POPC:POPE:POPG) was dried in a glass vial to a thin film under a constant stream of N2. The lipids were then further dried under vacuum in a desiccator overnight. The following day the lipids were hydrated in 500 µl of reconstitution buffer (100 mM NaNO3, 10 mM HEPES, pH 7) (Buffer R), 250 µl of 75 mM 8-Aminonaphthalene-1,3,6-Trisulfonic Acid (ANTS, ThermoFisher Scientific) in buffer R, and doped with ~18 mg of CHAPS (Anatrace). The mixture was vortexed and then sonicated with heat until completely solubilized. Following the sonication, the solution was brought to RT then 3.5 µl of 6.7 mg/ml ELIC in Buffer A with 0.02% DDM was added (3 µg per mg of lipid). This combined solution was incubated at RT for 30 min, followed by the addition of 1 ml of 1:1 v/v SM-2 BioBeads in Buffer R and an additional 250 µl of 75 mM ANTS in Buffer R. This mixture was incubated at RT for 2.5 hr with gentle mixing. The liposome suspension was then extruded with an Avanti mini-extruder and 0.1 µm membrane (30×). The extruded liposomes were stored at 13 °C overnight with gentle rotation. The next day, the liposomes were diluted to 2.5 mL using assay buffer (140 mM NaNO3, 10 mM HEPES, pH 7) (Stopped-flow Buffer A), loaded into a PD-10 desalting column (Cytiva), eluted with 3 mL of Stopped-flow Buffer A and subsequently diluted 5-fold with Stopped-flow Buffer A.
# (§3) Using propylamine as the agonist, the assay and analysis was carried out as previously described[13],[30].
# ELIC R318A = target: T2, ELIC R318A (Dickeya chrysanthemi, UniProt P0C7B7, R317A)
# T2 construct: host or cells: OverExpress C43 (DE3) E. coli
# Protocol: as §1, §2, §3
# ELIC S202A = target: T3, ELIC S202A (Dickeya chrysanthemi, UniProt P0C7B7, S201A)
# T3 construct: host or cells: OverExpress C43 (DE3) E. coli
# Protocol: as §1, §2, §3
# ELIC T259A = target: T4, ELIC T259A (Dickeya chrysanthemi, UniProt P0C7B7, T258A/T259A)
# T4 construct: host or cells: OverExpress C43 (DE3) E. coli
# Protocol: as §1, §2, §3
# ELIC W206F = target: T5, ELIC W206F (Dickeya chrysanthemi, UniProt P0C7B7, W205F)
# T5 construct: host or cells: OverExpress C43 (DE3) E. coli
# Protocol: as §1, §2, §3
# T1 sequence (P0C7B7 whole entry Q263L): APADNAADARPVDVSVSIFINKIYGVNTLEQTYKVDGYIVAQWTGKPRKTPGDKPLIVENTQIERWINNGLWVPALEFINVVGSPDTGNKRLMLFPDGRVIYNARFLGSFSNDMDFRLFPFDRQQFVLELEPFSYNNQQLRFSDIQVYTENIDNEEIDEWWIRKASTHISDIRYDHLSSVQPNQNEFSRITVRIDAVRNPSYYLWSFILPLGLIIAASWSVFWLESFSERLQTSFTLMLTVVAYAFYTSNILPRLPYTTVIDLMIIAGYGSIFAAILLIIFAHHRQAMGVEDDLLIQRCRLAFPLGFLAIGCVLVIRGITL
# T5 sequence (P0C7B7 whole entry W205F): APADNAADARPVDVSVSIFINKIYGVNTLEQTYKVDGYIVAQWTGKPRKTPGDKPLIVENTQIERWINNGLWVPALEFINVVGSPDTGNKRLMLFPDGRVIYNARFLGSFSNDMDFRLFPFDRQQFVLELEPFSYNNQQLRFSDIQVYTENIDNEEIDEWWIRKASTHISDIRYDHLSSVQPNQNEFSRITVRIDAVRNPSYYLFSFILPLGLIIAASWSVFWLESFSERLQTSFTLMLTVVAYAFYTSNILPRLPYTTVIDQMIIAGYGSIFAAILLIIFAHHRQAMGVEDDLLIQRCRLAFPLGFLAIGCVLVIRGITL
# T3 sequence (P0C7B7 whole entry S201A): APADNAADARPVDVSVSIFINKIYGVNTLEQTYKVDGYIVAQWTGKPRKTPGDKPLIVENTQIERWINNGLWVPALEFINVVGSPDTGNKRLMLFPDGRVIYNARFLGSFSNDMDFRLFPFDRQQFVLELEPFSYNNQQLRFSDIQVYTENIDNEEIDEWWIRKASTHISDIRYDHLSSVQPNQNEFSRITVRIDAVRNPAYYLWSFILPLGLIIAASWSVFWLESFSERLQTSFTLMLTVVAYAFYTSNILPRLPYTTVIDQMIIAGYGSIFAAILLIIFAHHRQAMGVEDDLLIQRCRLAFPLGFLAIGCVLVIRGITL
# T4 sequence (P0C7B7 whole entry T258A/T259A): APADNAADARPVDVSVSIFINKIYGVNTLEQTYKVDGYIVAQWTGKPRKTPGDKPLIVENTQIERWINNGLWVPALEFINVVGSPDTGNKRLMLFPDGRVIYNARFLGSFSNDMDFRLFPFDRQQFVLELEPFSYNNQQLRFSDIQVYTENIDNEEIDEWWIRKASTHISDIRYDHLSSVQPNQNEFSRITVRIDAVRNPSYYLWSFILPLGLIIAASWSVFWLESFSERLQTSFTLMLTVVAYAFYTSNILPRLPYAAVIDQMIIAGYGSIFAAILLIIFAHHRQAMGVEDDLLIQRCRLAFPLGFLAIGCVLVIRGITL
# T2 sequence (P0C7B7 whole entry R317A): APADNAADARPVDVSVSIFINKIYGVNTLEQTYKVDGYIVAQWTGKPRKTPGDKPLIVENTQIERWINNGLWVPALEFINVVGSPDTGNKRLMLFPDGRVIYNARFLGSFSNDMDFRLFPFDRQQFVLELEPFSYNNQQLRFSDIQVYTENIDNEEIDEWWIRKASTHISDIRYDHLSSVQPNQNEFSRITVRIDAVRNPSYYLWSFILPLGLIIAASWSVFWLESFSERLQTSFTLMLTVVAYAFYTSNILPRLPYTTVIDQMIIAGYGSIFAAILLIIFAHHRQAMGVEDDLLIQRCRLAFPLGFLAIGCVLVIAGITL
smiles,measurement,setting,value
"CCCCCCCC/C=C\CCCCCCCC(=O)OC(COC(=O)CCCCCCCCCCCCCCC)COP(=O)(O)OCC(O)CO (stereo not shown) [POPG, 1-palmitoyl-2-oleoyl-phosphatidylglycerol]",POPG modulation (peak response and desensitization),ELIC R117A,both effects of POPG (increased peak response and decreased desensitization) are abolished
same,POPG modulation (peak response and desensitization),ELIC Q264L,POPG modulation is preserved
same,increase in the measurable peak response,ELIC Q264L,2 ×
same,POPG modulation (peak response and desensitization),ELIC R318A,POPG only decreases desensitization
same,POPG modulation (peak response and desensitization),ELIC S202A,both effects of POPG (increased peak response and decreased desensitization) are abolished
same,POPG modulation (peak response and desensitization),ELIC T259A,POPG only decreases desensitization
same,POPG modulation (peak response and desensitization),ELIC W206F,POPG only decreases desensitization
